Data reported in ChEMBL document CHEMBL1201862, “PubChem BioAssay data set” (2004).
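In this assay, cells in 96-well plates receive the compound at five concentrations for 48 hours. Endpoints are linearly interpolated between the surrounding concentrations. GI50 is the concentration that inhibits growth by half.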 Calls of active or inactive are those of the source. Rule as the data show it: active = GI50 up to about 1.1 µM and inactive = higher.

Columns and labels:
Experiment in all cases: NCI-60 cell line screen, 48 h
[1] = tested on: DMS-273
[2] = tested on: RXF 631
[3] = tested on: XF498
[4] = tested on: HOP-18
[5] = tested on: DMS-114
[6] = tested on: M19-MEL
[7] = tested on: SNB-78
[8] = tested on: DLD-1
[9] = tested on: Hs-578T

Row | SMILES | GI50 [1] | GI50 [2] | GI50 [3] | GI50 [4] | GI50 [5] | GI50 [6] | GI50 [7] | GI50 [8] | GI50 [9]
1 | CN(C)/C=N\c1cc[nH]c(=O)n1 | > 100 µM (inactive) | > 100 µM (inactive) | > 100 µM (inactive) | > 100 µM (inactive) | > 100 µM (inactive) | > 100 µM (inactive) | > 100 µM (inactive) | > 100 µM (inactive) | 
2 | C=CC1=C(C)/C(=C/C2=NC(=C\c3[nH]c(CC4NC(=O)C(C)/C4=C\C)c(C)c3CCC(=O)O)/C(CC(=O)O)=C2C)NC1=O (centres undefined) |  | > 100 µM (inactive) | > 100 µM (inactive) | > 100 µM (inactive) | > 100 µM (inactive) | > 100 µM (inactive) | > 100 µM (inactive) | > 100 µM (inactive) | 
3 | Cc1ccc(NC(=O)/C(=N/NC(=O)C[N+](C)(C)C)c2nc3ccccc3nc2O)cc1 | > 100 µM (inactive) | > 100 µM (inactive) |  | > 100 µM (inactive) | > 100 µM (inactive) | > 100 µM (inactive) | > 100 µM (inactive) | > 100 µM (inactive) | 
4 | CS(=O)(=O)c1ccc(-c2cc(-c3ccc(S(C)(=O)=O)cc3)[n+](-c3cc(-c4ccccc4)c([O-])c(-c4ccccc4)c3)c(-c3ccc(S(C)(=O)=O)cc3)c2)cc1 | > 100 µM (inactive) | > 100 µM (inactive) | > 100 µM (inactive) | > 100 µM (inactive) | > 100 µM (inactive) | > 100 µM (inactive) | > 100 µM (inactive) |  | 
5 | O=c1ccn([C@H]2CSC[C@@H](CO)C2)c(=O)[nH]1 | > 100 µM (inactive) | > 100 µM (inactive) |  | > 100 µM (inactive) | > 100 µM (inactive) | > 100 µM (inactive) | > 100 µM (inactive) | > 100 µM (inactive) | 
6 | O=c1c(NO)c([N+](=O)[O-])cnn1-c1ccccc1 | 3.26 µM (inactive) | 2.48 µM (inactive) | 3.41 µM (inactive) | 22.1 µM (inactive) | 15.8 µM (inactive) | 3.67 µM (inactive) | 16.9 µM (inactive) | 3.6 µM (inactive) | < 0.01 µM (active)
7 | COc1ccc(OCC(=O)O)c2c1CCC(C)C2=O (centres undefined) | > 100 µM (inactive) | > 100 µM (inactive) | > 100 µM (inactive) | 94.6 µM (inactive) | > 100 µM (inactive) | > 100 µM (inactive) | > 100 µM (inactive) | > 100 µM (inactive) | 
8 | CC(=O)NNc1nc(C)c(C(=O)/C=C/c2ccc(Cl)c(Cl)c2)s1 | > 100 µM (inactive) | > 100 µM (inactive) |  | > 100 µM (inactive) | > 100 µM (inactive) | > 100 µM (inactive) | > 100 µM (inactive) | > 100 µM (inactive) | 
9 | COc1cc([C@H]2c3cc4c(cc3O[C@@]3(O)COC(=O)[C@@H]23)OCO4)cc(OC)c1OC | > 100 µM (inactive) | > 100 µM (inactive) | > 100 µM (inactive) | > 100 µM (inactive) | > 100 µM (inactive) | > 100 µM (inactive) | > 100 µM (inactive) | > 100 µM (inactive) | > 100 µM (inactive)
